A value given as a limit tells only on which side of the number the result lay.

Assay type in all cases: cell-based
One data set concerns HIV-1BaL. Description: HIV-1BaL infection of PHA-stimulated PBMC, p24-core antigen ELISA. Here is the method: (§1) HIV-1 strain Ba-L is grown to high titer in MDM. The 50% tissue culture infectious dose (TCID50) of the virus stock is determined by endpoint dilution with serial fourfold dilutions in a 96-well microtiter plate on MDM. HIV-1 strain AT is grown to high titer in PHA-stimulated PBMC. The TCID50 of the virus stock is determined by endpoint dilution with serial fourfold dilutions in a 96-well microtiter plate on PBMC.

For a further data set, the system named is HIV-1. Description: HIV-1 infection of PHA-stimulated PBMC, p24-core antigen ELISA (strain not specified in the result). To be noted: Human immunodeficiency virus 1; PHA-stimulated PBMC infected with HIV-1AT or HIV-1BaL; p24 after 4 and 5 days; read-out: Concentrations that inhibit HIV-1 production. How it is done: as §1
(In general: ELISA stands for enzyme-linked immunosorbent assay.)

The subject of a further data set is HIV-1Ba-L. Description: HIV-1 infection of monocyte-derived macrophages, p24-core antigen ELISA. To be noted: Human immunodeficiency virus 1, Macrophage, MDM infected with HIV-1Ba-L, multiplicity of infection 0.02. Here is the method:
Cells are washed twice and monocytes are purified by countercurrent centrifugal elutriation. Cells are >98% monocytes by criteria of cell morphology on May-Grunwald-Giemsa-stained cytosmears and by nonspecific esterase staining using alpha-naphtylacetate (Sigma Chemical Co., St. Louis, MO) as substrate.
as §1
PBMC were washed twice and monocytes were purified by countercurrent centrifugal elutriation. […] Concentrations above 0.3 µM APHS inhibit p24 production. 30 µM APHS inhibits HIV-1 replication by 88%.

The test system of the next data set is PBMC. The experiment in a line: WST-1 cytotoxicity assay in PBMC. To be noted: 5 days incubation. How it is done:
Cell viability is assessed with WST-1 assay. Cells are incubated with the tetrazolium salt WST-1 (4-[3-(4-lodophenyl)-2-(4-nitrophenyl)-2H-5-tetrazolio]-1,3-benzene disulfonate) for 2 hours at 37 °C. During this time viable cells convert WST-1 into water soluble formazan dyes. The OD of the supernatant is measured at 550 nm.
Fig 5 - PBMC were obtained and stimulated as described in legend of Fig. 4. […] After a 5 days incubation period cellular viability was assessed by WST-1 cytotoxicity assay where viable cells convert WST-1 into a coloured formazan dye that can be measured spectrophotometrically.
For orientation: Tetrazolium assays rely on reduction of a dye to a coloured formazan, in cell work by metabolically active cells.

Data set [1] has as its system Monocyte-derived macrophages (MDM). The experiment in a line: MTT cytotoxicity assay in monocyte-derived macrophages. To be noted: 4 days incubation in different concentrations. How it is done:
Cell viability is assessed by the MTT assay. In short, cells are incubated with MTT 3-(4,5-dimethylthiazol-2-yl)-2,5-diphenyltetrazollumbromide (Sigma) for 2 hours at 37 °C. During this time viable cells convert MTT into […] formazan dyes. Afterwards crystals are solubilised with a solution containing isopropanol. The OD of the supernatant is measured at 550 nm.
Fig 3 - Monocyte-derived macrophages (MDM) were obtained like described in legend of Fig.2. […] After a 4 days incubation period cellular viability was assessed by MTT cytotoxicity assay where viable cells convert MTT into a colored formazan dye that can be measured spectrophotometrically.

As to `CCCCC#CCSc1ccccc1OC(C)=O` [APHS, o-(acetoxy-phenyl)hept-2-ynyl sulphide], in the data set with HIV-1BaL (Human immunodeficiency virus 1, 1 µM APHS, when infectivity is lower (Fig 4c), read-out: inhibit HIV-1BaL production by), the inhibition at 1 µM is 50%. In addition, the inhibition at 30 µM in the data set with HIV-1BaL (Human immunodeficiency virus 1, 30 µM APHS, read-out: inhibit HIV-1BaL replication by) worked out at 100%; in the data set on HIV-1Ba-L (30 µM APHS, read-out: inhibits HIV-1 replication by) it was 88%. Further, the minimal effective concentration is over 1 µM in the data set on HIV-1; over 0.3 µM in the data set with HIV-1Ba-L (supernatant after 4 and 5 days, read-out: Concentrations that inhibit p24 production). For the same compound, in the data set with PBMC, the “Concentrations found to reduce viability” value is listed as at least 100 µM. In data set [1], the “cytotoxicity (cellular viability, MTT)” value is “None of the tested concentrations of APHS was found to be cytotoxic”.

These data come from patent publication EP1064940A1, “Antiviral therapy” (Universitair Medisch Centrum Utrecht, priority 1999, dated 2001).
